Assay results reported in PubChem BioAssay AID330 (DTP/NCI, 2004).
Values joined by “and” are separate entries in the source; they are usually repeats but may differ in a detail not shown here. Equal entries are not always repeated. Inconclusive results and toxic doses are left out.

Tested on: P388 leukemia ip, CD2F1 mice, survival T/C
Assay: NCI In Vivo Anticancer Drug Screen. Data for tumor model P388 Leukemia (intraperitoneal) in CD2F1 (CDF1) mice
Conditions: endpoint: median survival time, higher = longer survival
Summary of the method: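 Mice carrying the transplanted tumor received test compound or vehicle. Survival was recorded in each group, and the value is the treated-group measurement divided by that of the vehicle-treated control group.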

[1] = dose: 50.0 mg/kg/injection, schedule: Q01DX009 (ip), vehicle: saline with Tween-80
[2] = dose: 100.0 mg/kg/injection, schedule: Q01DX009 (ip), vehicle: saline with Tween-80
[3] = dose: 200.0 mg/kg/injection, schedule: Q01DX009 (ip), vehicle: saline with Tween-80
[4] = dose: 50.0 mg/kg/injection, schedule: Q01DX009 (ip), vehicle: saline
[5] = dose: 100.0 mg/kg/injection, schedule: Q01DX009 (ip), vehicle: saline
[6] = dose: 200.0 mg/kg/injection, schedule: Q01DX009 (ip), vehicle: saline
[7] = dose: 100.0 mg/kg/injection, schedule: Q04DX003 (ip), vehicle: saline
[8] = dose: 200.0 mg/kg/injection, schedule: Q04DX003 (ip), vehicle: saline
[9] = dose: 400.0 mg/kg/injection, schedule: Q04DX003 (ip), vehicle: saline
[10] = dose: 400.0 mg/kg/injection, schedule: Q01DX009 (ip), vehicle: saline
[11] = dose: 50.0 mg/kg/injection, schedule: Q01DX009 (ip), vehicle: Klucel (hydroxypropylcellulose) (HPC)
[12] = dose: 100.0 mg/kg/injection, schedule: Q01DX009 (ip), vehicle: Klucel (hydroxypropylcellulose) (HPC)
[13] = dose: 200.0 mg/kg/injection, schedule: Q01DX009 (ip), vehicle: Klucel (hydroxypropylcellulose) (HPC)
[14] = dose: 50.0 mg/kg/injection, schedule: Q01DX005 (ip), vehicle: saline with Tween-80
[15] = dose: 100.0 mg/kg/injection, schedule: Q01DX005 (ip), vehicle: saline with Tween-80
[16] = dose: 200.0 mg/kg/injection, schedule: Q01DX005 (ip), vehicle: saline with Tween-80
[17] = dose: 50.0 mg/kg/injection, schedule: Q01DX005 (ip), vehicle: saline
[18] = dose: 100.0 mg/kg/injection, schedule: Q01DX005 (ip), vehicle: saline
[19] = dose: 200.0 mg/kg/injection, schedule: Q01DX005 (ip), vehicle: saline
[20] = dose: 60.0 mg/kg/injection, schedule: Q01DX005 (ip), vehicle: Klucel (hydroxypropylcellulose) (HPC)
[21] = dose: 120.0 mg/kg/injection, schedule: Q01DX005 (ip), vehicle: Klucel (hydroxypropylcellulose) (HPC)
[22] = dose: 50.0 mg/kg/injection, schedule: Q01DX009 (ip), vehicle: other
[23] = dose: 100.0 mg/kg/injection, schedule: Q01DX009 (ip), vehicle: other
[24] = dose: 200.0 mg/kg/injection, schedule: Q01DX009 (ip), vehicle: other
[25] = dose: 60.0 mg/kg/injection, schedule: Q01DX005 (ip), vehicle: saline with Tween-80
[26] = dose: 120.0 mg/kg/injection, schedule: Q01DX005 (ip), vehicle: saline with Tween-80
[27] = dose: 240.0 mg/kg/injection, schedule: Q01DX005 (ip), vehicle: saline with Tween-80

## COc1ccc(NC(=O)C2C(=O)C(=O)N(c3ccc(OC)cc3)C2=O)cc1 (stereo unspecified)
dose: 100.0 mg/kg/injection, schedule: Q04DX002 (ip), vehicle: saline with Tween-80
  T/C: 100 % of control
dose: 200.0 mg/kg/injection, schedule: Q04DX002 (ip), vehicle: saline with Tween-80
  T/C: 101 % of control

## CCOc1cc2cc(CCC(=O)O)c(C)cc2cn1
dose: 12.5 mg/kg/injection, schedule: Q01DX009 (ip), vehicle: distilled water + Tween-80
  T/C: 101 % of control
dose: 25.0 mg/kg/injection, schedule: Q01DX009 (ip), vehicle: distilled water + Tween-80
  T/C: 103 % of control
dose: 50.0 mg/kg/injection, schedule: Q01DX009 (ip), vehicle: distilled water + Tween-80
  T/C: 97 % of control
dose: 100.0 mg/kg/injection, schedule: Q01DX009 (ip), vehicle: distilled water + Tween-80
  T/C: 98 % of control
dose: 200.0 mg/kg/injection, schedule: Q01DX009 (ip), vehicle: distilled water + Tween-80
  T/C: 107 % of control

## Cc1cccc(C)c1N=CNc1c(C)cccc1C.[Cu+2]
dose: 25.0 mg/kg/injection, schedule: Q01DX009 (ip), vehicle: saline with Tween-80
  T/C: 101 % of control and 103 % of control and 118 % of control

## OC(Nc1ncccn1)C(F)(F)F (stereo unspecified)
[1]
  T/C: 92 % of control
[2]
  T/C: 111 % of control
[3]
  T/C: 120 % of control

## N#Cc1c(N)sc(=S)c2ccccc12
[4]
  T/C: 91 % of control
[5]
  T/C: 104 % of control
[6]
  T/C: 95 % of control

## Cc1ccc(S(=O)(=O)CCC(=O)c2ccccc2)cc1
[7]
  T/C: 104 % of control
[8]
  T/C: 100 % of control
[9]
  T/C: 101 % of control

## CC(N)S(=O)(=O)O (stereo unspecified)
[4]
  T/C: 104 % of control
[5]
  T/C: 98 % of control
[6]
  T/C: 104 % of control
[10]
  T/C: 88 % of control

## O=C1CCCCC1C1=CCCCC1 (stereo unspecified)
[11]
  T/C: 109 % of control
[12]
  T/C: 95 % of control
[13]
  T/C: 100 % of control
dose: 400.0 mg/kg/injection, schedule: Q01DX009 (ip), vehicle: Klucel (hydroxypropylcellulose) (HPC)
  T/C: 92 % of control

## Cc1c(NC(=S)Nc2ccccc2)c(=O)n(-c2ccccc2)n1C
[14]
  T/C: 93 % of control
[15]
  T/C: 93 % of control
[16]
  T/C: 89 % of control

## CC(=O)NC(CC(C)C(C)=O)C(=O)O (stereo unspecified)
[17]
  T/C: 92 % of control
[18]
  T/C: 95 % of control
[19]
  T/C: 92 % of control

## C1CN(/N=N/c2nn[nH]n2)CCO1
[11]
  T/C: 117 % of control
[12]
  T/C: 117 % of control
[13]
  T/C: 106 % of control

## Oc1ccc(N=Nc2c(-c3ccccc3)nn(C(=S)S)c2-c2ccccc2)cc1
[14]
  T/C: 103 % of control
[15]
  T/C: 102 % of control
[16]
  T/C: 101 % of control

## N#CC1=C(Nc2ccccc2)SC(c2cccs2)NC1=O (stereo unspecified)
[20]
  T/C: 108 % of control
[21]
  T/C: 108 % of control

## CCN(CC)CCNc1ccc(CO)c2oc3ccc(O)cc3c(=O)c12
[14]
  T/C: 171 % of control and 189 % of control
[15]
  T/C: 214 % of control and 217 % of control

## O=NN(CCCCl)C(=O)NC1CCCCC1
dose: 12.5 mg/kg/injection, schedule: Q01DX009 (ip), vehicle: saline
  T/C: 86 % of control
dose: 25.0 mg/kg/injection, schedule: Q01DX009 (ip), vehicle: saline
  T/C: 98 % of control
[4]
  T/C: 104 % of control
[5]
  T/C: 107 % of control

## CC(=O)O/C(C#N)=C1\CCCC\C1=C(\C#N)OC(C)=O
dose: 6.25 mg/kg/injection, schedule: Q01DX001 (ip), vehicle: saline with Tween-80
  T/C: 103 % of control
dose: 12.5 mg/kg/injection, schedule: Q01DX001 (ip), vehicle: saline with Tween-80
  T/C: 107 % of control
dose: 25.0 mg/kg/injection, schedule: Q01DX001 (ip), vehicle: saline with Tween-80
  T/C: 103 % of control

## COc1ccc(CC(=O)Nc2ccc(OC)c(OC)c2)cc1OC
dose: 25.0 mg/kg/injection, schedule: Q01DX009 (ip), vehicle: other
  T/C: 92 % of control
[22]
  T/C: 91 % of control
[23]
  T/C: 95 % of control
[24]
  T/C: 87 % of control
dose: 400.0 mg/kg/injection, schedule: Q01DX009 (ip), vehicle: other
  T/C: 92 % of control

## CCOC(=O)c1csc(=S)[nH]1
[25]
  T/C: 107 % of control
[26]
  T/C: 101 % of control
[27]
  T/C: 100 % of control

## C=C(C)[C@@H]1CC[C@@H]2C(=CC[C@]3(C)C([C@H](C)CC/C=C(/C)C(=O)O)CC[C@@]23C)[C@@]1(C)CCC(=O)O (stereo partly specified)
dose: 1.41 mg/kg/injection, schedule: Q01DX009 (ip), vehicle: saline + alcohol
  T/C: 88 % of control
dose: 2.81 mg/kg/injection, schedule: Q01DX009 (ip), vehicle: saline + alcohol
  T/C: 93 % of control
dose: 5.63 mg/kg/injection, schedule: Q01DX009 (ip), vehicle: saline + alcohol
  T/C: 99 % of control
dose: 11.25 mg/kg/injection, schedule: Q01DX009 (ip), vehicle: saline + alcohol
  T/C: 99 % of control
dose: 90.0 mg/kg/injection, schedule: Q01DX009 (ip), vehicle: saline + alcohol
  T/C: 102 % of control

## Cc1c(-c2ccccc2)ccnc1/C=N/NS(=O)(=O)c1ccccc1
[22]
  T/C: 103 % of control
[23]
  T/C: 97 % of control
[24]
  T/C: 96 % of control

## Cc1[nH]c(=O)[nH]c(=O)c1CCSSCCc1c(C)[nH]c(=O)[nH]c1=O
[14]
  T/C: 102 % of control
[15]
  T/C: 100 % of control
[16]
  T/C: 98 % of control

## CCC(C)OC(=Nc1cccc2ccccc12)Nc1cccc2ccccc12 (stereo unspecified)
[25]
  T/C: 92 % of control
[26]
  T/C: 93 % of control
[27]
  T/C: 93 % of control

## COP(=O)(CC(=O)CCCCCOC1CCCCO1)OC (stereo unspecified)
[17]
  T/C: 100 % of control
[18]
  T/C: 100 % of control
[19]
  T/C: 99 % of control

## O=CN(O)CC(=O)O
[1]
  T/C: 95 % of control
dose: 50.0 mg/kg/injection, schedule: Q04DX003 (ip), vehicle: saline sonified
  T/C: 104 % of control
[2]
  T/C: 104 % of control
[5]
  T/C: 100 % of control
dose: 100.0 mg/kg/injection, schedule: Q04DX003 (ip), vehicle: saline sonified
  T/C: 100 % of control
[7]
  T/C: 100 % of control
[3]
  T/C: 95 % of control
[6]
  T/C: 109 % of control
dose: 200.0 mg/kg/injection, schedule: Q04DX003 (ip), vehicle: saline sonified
  T/C: 100 % of control
[8]
  T/C: 108 % of control
dose: 400.0 mg/kg/injection, schedule: Q01DX009 (ip), vehicle: saline with Tween-80
  T/C: 100 % of control
[10]
  T/C: 100 % of control
dose: 400.0 mg/kg/injection, schedule: Q04DX003 (ip), vehicle: saline sonified
  T/C: 100 % of control
[9]
  T/C: 91 % of control

## CCN(CC)C1=C/CC/C(c2ccccc2)=N/N=C\1c1ccccc1
[20]
  T/C: 89 % of control
[21]
  T/C: 95 % of control
dose: 240.0 mg/kg/injection, schedule: Q01DX005 (ip), vehicle: Klucel (hydroxypropylcellulose) (HPC)
  T/C: 97 % of control

## C=C1C(=O)OC2CC3(C)C(CCC(C)=O)C3CC12 (stereo unspecified)
[4]
  T/C: 96 % of control
[5]
  T/C: 94 % of control
[6]
  T/C: 98 % of control

## CC(C)(O)c1cc2nc3ccccc3nc2n1CCO
[25]
  T/C: 109 % of control
[26]
  T/C: 107 % of control
[27]
  T/C: 108 % of control
